# Publication PMC12180986, “Molecular basis for differential PIP2-mediated association between vinculin and its splice isoform metavinculin” (The Journal of Biological Chemistry, 2025)
# Positions count from the first letter of the chain named.
# Tests used:
# Assay type in all cases: binding
# [1] = target: T1, Vt (vinculin tail domain) (Gallus gallus, UniProt P12003); assay: high-speed lipid cosedimentation with LUVs, protein titration; conditions: protein titrated at fixed 10% PIP2 in PE/PC/PS/PIP2 LUVs; Kd in protein concentration; 40 mM Hepes, 150 mM NaCl, pH 7.4, room temperature; read-out: Protein concentration (μM) / app Kd
# T1 construct: gene VCL; tail domain residues 879-1066; N-terminal His-tag removed by TEV; pQlinkH; E. coli BL21(DE3)
# T1 sequence (P12003 879-1066 isoform P12003-1): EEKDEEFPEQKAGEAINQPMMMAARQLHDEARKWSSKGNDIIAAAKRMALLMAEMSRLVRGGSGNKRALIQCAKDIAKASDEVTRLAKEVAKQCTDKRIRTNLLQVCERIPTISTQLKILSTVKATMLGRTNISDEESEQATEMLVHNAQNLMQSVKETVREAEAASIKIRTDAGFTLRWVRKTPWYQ
# Text: high-speed lipid cosedimentation with LUVs, protein titration on Vt (vinculin tail domain)
# [2] = target: T2, MVt (metavinculin tail domain) (Homo sapiens, UniProt P18206); assay: high-speed lipid cosedimentation with LUVs, PIP2 gradient; conditions: 10 μM protein, PE/PC/PS LUVs with 0-30 mol% PIP2; one-site fit; pH 7.4, room temperature; the table also has a μM column, which looks inconsistent with the lipid amount
# T2 construct: gene VCL; tail domain residues 879-1134; N-terminal His-tag removed by TEV; 2HR-T vector; E. coli BL21(DE3)
# T2 sequence (P18206 879-1134): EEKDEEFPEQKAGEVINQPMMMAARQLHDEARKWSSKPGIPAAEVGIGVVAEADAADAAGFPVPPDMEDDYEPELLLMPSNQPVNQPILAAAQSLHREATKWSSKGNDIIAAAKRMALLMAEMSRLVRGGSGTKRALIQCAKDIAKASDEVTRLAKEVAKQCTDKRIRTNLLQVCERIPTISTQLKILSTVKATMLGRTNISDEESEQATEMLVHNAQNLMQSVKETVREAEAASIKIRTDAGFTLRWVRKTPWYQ
# Text: (§1) high-speed lipid cosedimentation with LUVs, PIP2 gradient on MVt (metavinculin tail domain)
# [3] = target: T3, MVt (metavinculin tail domain) (Homo sapiens, UniProt P18206, A934V); assay: as above; conditions: 10 μM protein, PE/PC/PS LUVs with 0-30 mol% PIP2; one-site fit; pH 7.4, room temperature; the table also has a μM column, which looks inconsistent with the lipid amount
# T3 construct: gene VCL; tail domain residues 879-1134; N-terminal His-tag removed by TEV; 2HR-T vector; E. coli BL21(DE3)
# T3 sequence (P18206 879-1134 A934V): T2 sequence (P18206 879-1134) with A56V
# Text: as §1
# [4] = target: T2, MVt (metavinculin tail domain); assay: high-speed lipid cosedimentation with LUVs, protein titration; conditions: protein titrated at fixed 10% PIP2 in PE/PC/PS/PIP2 LUVs; Kd in protein concentration; 40 mM Hepes, 150 mM NaCl, pH 7.4, room temperature; read-out: Protein concentration (μM) / app Kd
# Text: high-speed lipid cosedimentation with LUVs, protein titration on MVt (metavinculin tail domain)
# [5] = target: T1, Vt (vinculin tail domain); assay: high-speed lipid cosedimentation with LUVs, PIP2 gradient; conditions: 10 μM protein, PE/PC/PS LUVs with 0-30 mol% PIP2; one-site fit; pH 7.4, room temperature; the table also has a μM column, which looks inconsistent with the lipid amount
# Text: high-speed lipid cosedimentation with LUVs, PIP2 gradient on Vt (vinculin tail domain)
substance,measurement,setting,value
"L-α-phosphatidylinositol-4,5-bisphosphate [PIP2]",Kd,[1],4.94 ± 1.56 µM
same,PIP2 (%) / app Kd,[2],9.20 ± 1.80 % PIP2 (mol%) in liposomes
same,PIP2 (%) / app Kd,[3],9.94 ± 2.52 % PIP2 (mol%) in liposomes
same,Kd,[4],4.66 ± 1.62 µM
same,PIP2 (%) / app Kd,[5],8.89 ± 1.25 % PIP2 (mol%) in liposomes
